Laboratory results as given in patent US20120263649A1, “DETECTION OF MYCOBACTERIA” (priority 2009, published 2012).

How the values were obtained:
[1] = target: Ag85C (Mycobacterium tuberculosis, UniProt P9WQN9); assay type: biochemical; conditions: ratio of peak height of mono-hexanoyl ester of labelled/derivatised Tre to peak height of labelled/derivatised Tre; 500 μM di-hexanoyl ester, 500 μM substrate, 100 nM enzyme, 1 mM TEA pH 7.2, 37° C; compound 1 (Tre) = 100
[2] = target: Ag85B (Mycobacterium tuberculosis, UniProt P9WQP1); assay type: biochemical; conditions: ratio of peak height of mono-hexanoyl ester of labelled/derivatised Tre to peak height of labelled/derivatised Tre; 500 μM di-hexanoyl ester, 500 μM substrate, 100 nM enzyme, 1 mM TEA pH 7.2, 37° C; compound 1 (Tre) = 100
Sequence of Ag85B (P9WQP1 41-325): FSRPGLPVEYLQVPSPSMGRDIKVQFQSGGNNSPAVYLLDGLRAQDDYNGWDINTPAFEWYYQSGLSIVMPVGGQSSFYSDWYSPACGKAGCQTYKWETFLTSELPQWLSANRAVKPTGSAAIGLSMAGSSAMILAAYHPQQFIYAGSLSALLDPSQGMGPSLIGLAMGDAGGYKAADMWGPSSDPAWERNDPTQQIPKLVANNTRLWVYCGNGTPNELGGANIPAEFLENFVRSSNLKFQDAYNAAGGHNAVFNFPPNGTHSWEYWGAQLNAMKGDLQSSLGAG

[3] = target: Ag85A (Mycobacterium tuberculosis, UniProt P9WQP3); assay type: biochemical; conditions: ratio of peak height of mono-hexanoyl ester of labelled/derivatised Tre to peak height of labelled/derivatised Tre; 500 μM di-hexanoyl ester, 500 μM substrate, 100 nM enzyme, 1 mM TEA pH 7.2, 37° C; compound 1 (Tre) = 100
Sequence of Ag85A (P9WQP3 44-338): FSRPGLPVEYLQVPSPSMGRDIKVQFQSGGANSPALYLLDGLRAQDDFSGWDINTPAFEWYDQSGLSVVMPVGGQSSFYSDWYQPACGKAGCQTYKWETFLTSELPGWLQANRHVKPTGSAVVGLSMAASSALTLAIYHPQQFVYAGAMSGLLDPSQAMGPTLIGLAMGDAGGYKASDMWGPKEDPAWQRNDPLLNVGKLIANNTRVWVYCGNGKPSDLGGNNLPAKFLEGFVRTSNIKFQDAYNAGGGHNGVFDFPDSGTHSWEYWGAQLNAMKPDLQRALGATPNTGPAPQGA

[4] = system: J774 Macrophages infected with H37Rv Mtb; assay: FITC-Tre uptake into infected macrophages, confocal microscopy with anti-Mtb antibody; assay type: cell-based, murine; conditions: FIG. 7(j); antibody labelled with Alexa-594
Protocol: J774 Macrophages were grown to confluency on coverslips and then were infected with H37Rv Mtb (2-3 bacteria/macrophage). After 4 hours infection time, macrophages were washed to remove free bacteria and FITC-Tre was added in ethanol to desired concentrations (1 μM, 10 μM, 50 μM, 100 μM). Quantum dots (QDs) were treated in an analogous fashion and were added to a concentration of dots of (7 nm) with roughly 110 sugars/dot (1 μM effective sugar concentration) Uncoated QDs were utilized as a control. RFP expressing BCG was also treated in an identical fashion.
Cells were fixed at different timepoints utilizing the following procedure: Media was removed and cells were washed in PBS Buffer. Cells were then fixed in an aqueous solution of 5% formalin is phosphate buffered saline (PBS) for 15 minutes and then washed again using two 2-minute treatments with PBS (0.5 ml) for 2 min. […]
Images of stained cells were obtained by confocal microscopy (Leica SP2, Leica Microsystems, Exton, Pa.) using a 63× oil immersion objective NA 1.4. Multiple fields were sampled, and representative images were recorded. […] DAPI was first excited at 405 nm and emission spectrum was recorded (416 nm-482 nm) before the other fluorochromes were excited and emission spectrums recorded. Essential Sequential Z sections of stained cells were also recorded for generation of stacked images through cell. […]

Sequence of Ag85C (P9WQN9 46-340): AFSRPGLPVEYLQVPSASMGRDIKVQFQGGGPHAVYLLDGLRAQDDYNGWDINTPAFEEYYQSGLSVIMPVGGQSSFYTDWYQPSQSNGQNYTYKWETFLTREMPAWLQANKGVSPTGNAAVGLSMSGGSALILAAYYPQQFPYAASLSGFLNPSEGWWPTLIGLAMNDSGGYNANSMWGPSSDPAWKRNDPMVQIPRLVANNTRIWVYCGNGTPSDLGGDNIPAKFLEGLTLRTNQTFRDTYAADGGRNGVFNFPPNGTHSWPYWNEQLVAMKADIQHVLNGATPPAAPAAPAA

| Structure (SMILES) | Relative substrate response towards transesterification, Ag85C [1] | Relative substrate response towards transesterification, Ag85B [2] | Relative substrate response towards transesterification, Ag85A [3] | Colocalization of probe with anti-Mtb antibody signal in infected macrophages [4] |
| --- | --- | --- | --- | --- |
| OC[C@H]1O[C@H](O[C@H]2O[C@H](CO)[C@@H](O)[C@H](O)[C@H]2O)[C@H](O)[C@@H](O)[C@@H]1O [Compound 1, trehalose, reference compound] | 100 | 100 | 100 | – |
| C[C@]1(O[C@H]2OC(CO)[C@@H](O)C(O)C2O)OC(CO)[C@@H](O)C(O)C1O (stereo partly drawn) [Compound 2, 1-Deoxy-α-D-gluco-hept-2-ulopyranosyl-(2→1)-α-D-glucopyranoside] | 111 | 13 | 32 | – |
| C[C@]1(O[C@H]2OC(CO)[C@@H](O)C(O)C2F)OC(CO)[C@@H](O)C(O)C1O (stereo partly drawn) [Compound 3, 1-Deoxy-α-D-gluco-hept-2-ulopyranosyl-(2→1)-2-deoxy-2-fluoro-α-D-glucopyranoside] | 102 | 1415 | 73 | – |
| C[C@]1(O[C@H]2OC(CO)[C@@H](O)C(O)C2O)OC(CO)[C@H](O)C(O)C1O (stereo partly drawn) [Compound 4, 1-Deoxy-α-D-galacto-hept-2-ulopyranosyl-(2→1)-α-D-glucopyranoside] | 57 | 7 | 12 | – |
| C[C@]1(O[C@H]2OC(CO)[C@@H](O)C(O)C2F)OC(CO)[C@H](O)C(O)C1O (stereo partly drawn) [Compound 5, 1-Deoxy-α-D-galacto-hept-2-ulopyranosyl-(2→1)-2-deoxy-2-fluoro-α-D-glucopyranoside] | 64 | 13 | 19 | – |
| C[C@]1(O[C@H]2OC(CO)[C@@H](O)C(F)C2O)OC(CO)[C@@H](O)C(O)C1O (stereo partly drawn) [Compound 6, 1-Deoxy-α-D-gluco-hept-2-ulopyranosyl-(2→1)-3-fluoro-3-deoxy-α-D-glucopyranoside] | 76 | 8 | 7 | – |
| C[C@]1(O[C@H]2OC(CO)[C@@H](O)C(O)C2N)OC(CO)[C@@H](O)C(O)C1O (stereo partly drawn) [Compound 7, 1-Deoxy-α-D-gluco-hept-2-ulopyranosyl-(2→1)-2-amino-2-deoxy-α-D-glucopyranoside] | 91 | 56 | 47 | – |
| C[C@]1(O[C@H]2OC(CO)[C@@H](O)C(O)C2NC(=S)Nc2ccc(-c3c4ccc(=O)cc-4oc4cc(O)ccc34)c(C(=O)O)c2)OC(CO)[C@@H](O)C(O)C1O (stereo partly drawn) [Compound 9, 1-Deoxy-α-D-gluco-hept-2-ulopyranosyl-(2→1)-2-N-fluorescein-2-deoxy-α-D-glucopyranoside] | 44 | 38 | 229 | colocalization of FITC-Tre and antibody |
| OCC1O[C@H](O[C@@H]2CC(O)[C@H](O)C(CO)O2)CC(O)[C@@H]1O (stereo partly drawn) [Compound 10, 2′-Deoxy-α-D-arabino-hexopyranosyl-(1→1)-2-deoxy-α-D-arabino-hexopyranoside] | 129 | 16 | 50 | – |
| OCC1O[C@H](O[C@@H]2CC(O)[C@@H](O)C(CO)O2)CC(O)[C@H]1O (stereo partly drawn) [Compound 11, 2′-Deoxy-α-D-lyxo-hexopyranosyl-(1→1)-2-deoxy-α-D-lyxo-hexopyranoside] | 1 | 4 | 1 | – |
| OCC1O[C@H](O[C@H]2OC(CO)[C@@H](O)C(O)C2I)C(I)C(O)[C@@H]1O (stereo partly drawn) [Compound 12, 2′-Deoxy-2′-iodo-α-D-mannopyranosyl-(1→1)-2-deoxy-2-iodo-α-D-mannopyranoside] | 166 | 54 | 148 | – |
| OCC1O[C@H](O[C@H]2OC(CO)[C@@H](O)C(O)C2F)C(F)C(O)[C@@H]1O (stereo partly drawn) [Compound 13, 2′-Deoxy-2′-fluoro-α-D-mannopyranosyl-(1→1)-2-deoxy-2-fluoro-α-D-mannopyranoside] | 98 | 24 | 66 | – |
| OCC1O[C@H](O[C@@H]2OC(CO)[C@@H](O)C(O)C2F)C(F)C(O)[C@@H]1O (stereo partly drawn) [Compound 14, 2′-Deoxy-2′-fluoro-α-D-mannopyranosyl-(1→1)-2-deoxy-2-fluoro-β-D-mannopyranoside] | 82 | 35 | 7 | – |
| O=P(O)(O)OCC1O[C@H](O[C@H]2OC(CO)[C@@H](O)C(O)C2O)C(O)C(O)[C@@H]1O (stereo partly shown) [Compound 15, Trehalose-6-phosphate] | 28 | 4 | 6 | – |
| COP(=O)(O)OCC1O[C@H](O[C@H]2OC(CO)[C@@H](O)C(O)C2O)C(O)C(O)[C@@H]1O (stereo partly drawn) [Compound 16, 6-O-monomethoxyphosphoryl-D-trehalose] | 113 | 24 | 37 | – |
| O=P1(O)OCC2O[C@H](O[C@H]3OC(CO)[C@@H](O)C(O)C3O)C(O)C(O)[C@@H]2O1 (stereo partly drawn) [Compound 17, 4,6-(monohydrogen)phosphoryl-D-trehalose] | 94 | 17 | 18 | – |
| [N-]=[N+]=NCC1O[C@H](O[C@H]2OC(CO)[C@@H](O)C(O)C2O)C(O)C(O)[C@@H]1O (stereo partly drawn) [Compound 18, 6-Azido-D-trehalose] | 64 | 13 | 37 | – |
| OCC1O[C@H](O[C@H]2OC(CBr)[C@@H](O)C(O)C2O)C(O)C(O)[C@@H]1O (stereo partly drawn) [Compound 19, 6-deoxy-6-bromo-α-D-glucopyranosyl-α-D-glucopyranoside] | 99 | 92 | 102 | – |
| OCC1O[C@H](O[C@H]2OC(CF)[C@@H](O)C(O)C2O)C(O)C(O)[C@@H]1O (stereo partly drawn) [Compound 20, 6-deoxy-6-fluoro-α-D-glucopyranosyl-α-D-glucopyranoside] | 91 | 412 | 149 | – |
| OC[C@H]1O[C@H](O[C@H]2O[C@H](CO)[C@H](F)[C@H](O)[C@H]2O)[C@H](O)[C@@H](O)[C@@H]1O [Compound 21, 4-deoxy-4-fluoro-α-D-galactopyranosyl α-D-glucopyranoside] | 91 | 412 | 229 | – |
